Laboratory results published in publication PMC7382147, “An effective UFLC–MS/MS method used to study pharmacokinetics of major constituents of Fukeqianjin formula in rat plasma” (Chinese Medicine, 2020).

What was measured:
[1] = Pharmacokinetic study in rat plasma after oral administration of FKQJF extract (UFLC–MS/MS); type: in vivo, Sprague-Dawley (SD) rats; conditions: for AUC(0-inf) / AUC(0-t) / Cmax / half-life / MRT last / MRT inf / Tmax: Sprague-Dawley, oral FKQJF extract, single dose 3.2 g/kg, mean ± SD; for MRT last: read-out: MRT0→t; for MRT inf: read-out: MRT0→∞; for Tmax: read-out: Tmax
Protocol: (§1) Aliquots of 100 μL plasma samples were mixed with 10 μL I.S. samples (1 μg/mL, in MeOH), then added with 500 μL ACN, respectively, and vortexed for 5 min, centrifugated at 10,000 rpm for 10 min, the supernatants were transferred into clean vials and dried in a vacuum centrifugal concentrator at 1200 rpm, 37 °C. After that, 100 μL ACN was added and ultrasonic (frequency 40 kHz, power 250 W) extracted for 5 min to dissolve the dry residue, vortexed for 1 min and centrifugated at 10,000 rpm for 5 min, 1 μL of each final supernatant was injected into UFLC–MS/MS for analysis.
An 8050 UFLC–MS/MS system equipped with LC-30A binary pump, a SIL-30AC autosampler, a SPD-M30A PDA detector, a CTO-20AC column oven, and a 8050 triple quadrupole mass spectrometer with an electrospray ionization source (ESI) was applied to detect and quantify FKQJF compounds in plasma samples. Data were acquired and processed with the software LabSolution (Ver. 5.6).
A Kinetex XB-C18 HPLC column (100 × 2.1 mm, 2.6 μm) linked with an equivalent guard column was used for chromatographic separation. The aqueous phase contained 0.2% formic acid was used as mobile phase A, and organic phase ACN as mobile phase B. The gradient elution method using in this program was: 3–5 min, 28–31% B; 5–7 min, 31–34% B; 7–9 min, 34–65% B; 9–10 min, 65–95% B; 10–11.5 min, 95% B. The flow rate of mobile phase, column temperature and autosampler temperature was 0.4 mL/min, 30 °C and 4 °C, respectively. The injection volume of each sample was set as 1 μL. The main MS spectrum parameters were set as follows: the flow rate of drying gas (N2) was 10.0 L/min; the atomized gas was 3.0 L/min and the heating gas flow rate was 10.0 L/min. The main temperatures of interface, desolvation and heat block was 300 °C, 250 °C and 400 °C, respectively. And, the interface and detector voltage were 3 kV and 1.8 kV.
Rats were divided into a blank group and a FKQJF administration group (6 rats for each), and fasted for 24 h. Each rat of the administration group was given FKQJF extract suspension at a single dose of 3.2 g FKQJF/kg body weight through oral administration in parallel. Blood samples (0.25 mL) were gathered from the orbital venous plexus of each rat, with FKQJF group gathered at 14 serial timepoints (6 rats for each) as 0.083 h, 0.16 h, 0.33 h, 0.5 h, 0.75 h, 1.0 h, 1.5 h, 2 h, 3 h, 4 h, 6 h, 8 h, 12 h and 24 h after drug administration. The blood samples were centrifugated at 6000g for 10 min to isolate plasma and stored at − 20 °C for further analysis.
Data were analyzed using the Drug and Statistics (DAS) Software version 2.0 (DAS 2.0, Mathematical Pharmacology Professional Committee of China, Shanghai, China). The non-compartmental mode was applied to obtain the following PK parameters: area under the plasma concentration–time curve from time zero to the time of last quantifiable concentration (AUC0→t) and area under the plasma concentration–time curve to time infinity (AUC0→∞), the elimination half-life (t1/2), mean retention time to last sampling time (MRT0→t) and mean retention time to infinity (MRT0→∞). The maximum plasma concentration (Cmax) and the time to maximum concentration (Tmax) were observed directly from the concentration–time (C–T) curves and measured data. All data are presented as mean ± SD.

[2] = Ordinary stability of QC samples (room temperature for 8 h); type: physicochemical, rat; conditions: plasma QC, room temperature 8 h
Protocol: as §1
(§2) Six replicates of low, medium and high concentrations of quality control (QC) samples were used to verify the stabilities under different conditions including: place at room temperature for 8 h, freeze (− 20 °C) and thaw for three times, and store at − 20 °C for 20 days.

[3] = Freeze–thaw stability of QC samples (−20 °C, three times); type: physicochemical, rat; conditions: plasma QC, freeze (−20 °C) and thaw three times
Protocol: as §1, §2

[4] = Long-term stability of QC samples (−20 °C for 20 days); type: physicochemical, rat; conditions: plasma QC
Protocol: as §1, §2

[5] = oral FKQJF extract 3.2 g/kg, post dose

COc1cc(O[C@@H]2O[C@H](CO)[C@@H](O)[C@H](O)[C@H]2O)cc(OC)c1OC [Analyte 1, 3,4,5-trimethoxyphenol-1-O-β-D-glucopyranoside]
AUC(0-inf) [1]: 115 ± 15.8 ng·h/mL
AUC(0-t) [1]: 109 ± 11.4 ng·h/mL
Cmax [1]: 48 ± 4.41 ng/mL
half-life [1]: 107 ± 26.4 min
MRT last [1]: 2.6 ± 0.12 h
MRT inf [1]: 3.37 ± 0.26 h
Tmax [1]: 2 h
shape of the plasma concentration–time curve ([1]; oral FKQJF extract 3.2 g/kg): double-peaks
Ordinary stability Mean ([2]; spiked 50 ng/mL): 80.92%
Ordinary stability Mean ([2]; spiked 250 ng/mL): 104.48%
Ordinary stability Mean ([2]; spiked 500 ng/mL): 117.94%
Freeze–thaw stability Mean ([3]; spiked 50 ng/mL): 112.34%
Freeze–thaw stability Mean ([3]; spiked 250 ng/mL): 99.57%
Freeze–thaw stability Mean ([3]; spiked 500 ng/mL): 106.56%
Long-term stability Mean ([4]; spiked 50 ng/mL): 86.86%
Long-term stability Mean ([4]; spiked 250 ng/mL): 89.00%
Long-term stability Mean ([4]; spiked 500 ng/mL): 103.76%

COC(=O)c1ccc(O)cn1 [Analyte 2, 5-hydroxypicolinic acid methyl ester]
AUC(0-inf) [1]: 3110 ± 38.7 ng·h/mL
AUC(0-t) [1]: 2970 ± 169 ng·h/mL
Cmax [1]: 477 ± 33.3 ng/mL
half-life [1]: 316 ± 176 min
MRT last [1]: 6.51 ± 0.66 h
MRT inf [1]: 8.09 ± 1.32 h
Tmax [1]: 2.17 ± 0.76 h
Ordinary stability Mean ([2]; spiked 50 ng/mL): 106.33%
Ordinary stability Mean ([2]; spiked 250 ng/mL): 86.35%
Ordinary stability Mean ([2]; spiked 500 ng/mL): 95.34%
Freeze–thaw stability Mean ([3]; spiked 50 ng/mL): 98.92%
Freeze–thaw stability Mean ([3]; spiked 250 ng/mL): 99.07%
Freeze–thaw stability Mean ([3]; spiked 500 ng/mL): 86.48%
Long-term stability Mean ([4]; spiked 50 ng/mL): 87.08%
Long-term stability Mean ([4]; spiked 250 ng/mL): 83.50%
Long-term stability Mean ([4]; spiked 500 ng/mL): 112.17%

O=Cc1ccc2n1C[C@]1(C[C@H](O)[C@@H](CO)O1)OC2 [Analyte 3, acortatarin A]
AUC(0-inf) [1]: 489 ± 37.6 ng·h/mL
AUC(0-t) [1]: 463 ± 29.5 ng·h/mL
Cmax [1]: 102 ± 18.4 ng/mL
half-life [1]: 160 ± 41.4 min
MRT last [1]: 3.67 ± 0.14 h
MRT inf [1]: 4.32 ± 0.47 h
Tmax [1]: 2.33 ± 0.58 h
Ordinary stability Mean ([2]; spiked 50 ng/mL): 93.52%
Ordinary stability Mean ([2]; spiked 250 ng/mL): 84.19%
Ordinary stability Mean ([2]; spiked 500 ng/mL): 109.98%
Freeze–thaw stability Mean ([3]; spiked 50 ng/mL): 84.84%
Freeze–thaw stability Mean ([3]; spiked 250 ng/mL): 92.61%
Freeze–thaw stability Mean ([3]; spiked 500 ng/mL): 90.89%
Long-term stability Mean ([4]; spiked 50 ng/mL): 81.68%
Long-term stability Mean ([4]; spiked 250 ng/mL): 86.77%
Long-term stability Mean ([4]; spiked 500 ng/mL): 93.19%

O=Cc1ccc2n1C[C@@]1(C[C@H](O)[C@@H](CO)O1)OC2 [Analyte 4, 9-epi-acortatarin A]
AUC(0-inf) [1]: 92.6 ± 21.4 ng·h/mL
AUC(0-t) [1]: 80.5 ± 9.64 ng·h/mL
Cmax [1]: 46.8 ± 6.78 ng/mL
half-life [1]: 132 ± 74.4 min
MRT last [1]: 2.38 ± 0.24 h
MRT inf [1]: 3.25 ± 0.41 h
Tmax [1]: 1 ± 0.5 h
Ordinary stability Mean ([2]; spiked 50 ng/mL): 108.94%
Ordinary stability Mean ([2]; spiked 250 ng/mL): 116.00%
Ordinary stability Mean ([2]; spiked 500 ng/mL): 84.20%
Freeze–thaw stability Mean ([3]; spiked 50 ng/mL): 91.90%
Freeze–thaw stability Mean ([3]; spiked 250 ng/mL): 107.25%
Freeze–thaw stability Mean ([3]; spiked 500 ng/mL): 102.81%
Long-term stability Mean ([4]; spiked 50 ng/mL): 118.34%
Long-term stability Mean ([4]; spiked 250 ng/mL): 81.20%
Long-term stability Mean ([4]; spiked 500 ng/mL): 104.85%

C=C1CC[C@@H]2[C@](C)(CO[C@@H]3O[C@H](CO)[C@@H](O)[C@H](O)[C@H]3O)CCC[C@@]2(C)[C@@H]1CCC1=CCOC1=O [Analyte 5, neoandrographolide]
AUC(0-inf) [1]: 505 ± 109 ng·h/mL
AUC(0-t) [1]: 344 ± 43.1 ng·h/mL
Cmax [1]: 104 ± 14.9 ng/mL
half-life [1]: 233 ± 51 min
MRT last [1]: 3.51 ± 0.24 h
MRT inf [1]: 7.55 ± 1.93 h
Tmax [1]: 1 ± 0.43 h
shape of the plasma concentration–time curve ([1]; oral FKQJF extract 3.2 g/kg): double-peaks
time of first peak of the concentration–time curve [1, 5]: 0 to 1 h
time of second peak of the concentration–time curve [1, 5]: 1.5 to 3 h
Ordinary stability Mean ([2]; spiked 60 ng/mL): 81.32%
Ordinary stability Mean ([2]; spiked 300 ng/mL): 103.80%
Ordinary stability Mean ([2]; spiked 600 ng/mL): 94.88%
Freeze–thaw stability Mean ([3]; spiked 60 ng/mL): 109.12%
Freeze–thaw stability Mean ([3]; spiked 300 ng/mL): 80.22%
Freeze–thaw stability Mean ([3]; spiked 600 ng/mL): 113.31%
Long-term stability Mean ([4]; spiked 60 ng/mL): 113.28%
Long-term stability Mean ([4]; spiked 300 ng/mL): 97.44%
Long-term stability Mean ([4]; spiked 600 ng/mL): 82.61%

COc1cc(/C=C/C(=O)O)ccc1O [Analyte 6, trans-ferulic acid]
AUC(0-inf) [1]: 1010 ± 558 ng·h/mL
AUC(0-t) [1]: 466 ± 51.9 ng·h/mL
Cmax [1]: 79.8 ± 9.43 ng/mL
half-life [1]: 629 ± 398 min
MRT last [1]: 9.19 ± 1 h
MRT inf [1]: 13.9 ± 9.49 h
Tmax [1]: 0.08 h
shape of the plasma concentration–time curve ([1]; oral FKQJF extract 3.2 g/kg): double-peaks
Ordinary stability Mean ([2]; spiked 60 ng/mL): 88.22%
Ordinary stability Mean ([2]; spiked 300 ng/mL): 109.93%
Ordinary stability Mean ([2]; spiked 600 ng/mL): 91.44%
Freeze–thaw stability Mean ([3]; spiked 60 ng/mL): 115.63%
Freeze–thaw stability Mean ([3]; spiked 300 ng/mL): 102.20%
Freeze–thaw stability Mean ([3]; spiked 600 ng/mL): 88.33%
Long-term stability Mean ([4]; spiked 60 ng/mL): 83.07%
Long-term stability Mean ([4]; spiked 300 ng/mL): 91.27%
Long-term stability Mean ([4]; spiked 600 ng/mL): 102.00%

O=c1c(-c2ccc(O)cc2)coc2cc(O[C@@H]3O[C@H](CO)[C@@H](O)[C@H](O)[C@H]3O)cc(O)c12 [Analyte 7, genistin]
AUC(0-inf) [1]: 550 ± 70.7 ng·h/mL
AUC(0-t) [1]: 468 ± 48.4 ng·h/mL
Cmax [1]: 87.7 ± 26.6 ng/mL
half-life [1]: 461 ± 181 min
MRT last [1]: 9.04 ± 0.68 h
MRT inf [1]: 14.2 ± 3.28 h
Tmax [1]: 0.17 h
shape of the plasma concentration–time curve ([1]; oral FKQJF extract 3.2 g/kg): double-peaks
Ordinary stability Mean ([2]; spiked 50 ng/mL): 93.52%
Ordinary stability Mean ([2]; spiked 250 ng/mL): 84.19%
Freeze–thaw stability Mean ([3]; spiked 50 ng/mL): 84.84%
Freeze–thaw stability Mean ([3]; spiked 250 ng/mL): 92.61%
Long-term stability Mean ([4]; spiked 50 ng/mL): 118.09%
Long-term stability Mean ([4]; spiked 250 ng/mL): 104.72%
Long-term stability Mean ([4]; spiked 500 ng/mL): 97.81%
